The values that follow come from US12583856B2, “Inhibitors of protein kinase A” (Blueprint Medicines Corporation, priority 2021, dated 2026).

One test addresses T1, PRKACA (Homo sapiens, UniProt P17612).
T1 construct: purchased Millipore 539482
Nature of the test: PRKACA assay at Km (EZ Reader 2 electrophoretic mobility shift). The format is biochemical. Particulars: 5 μM ATP (Km), 1 μM Kemptide, 90 minutes at 25 C; read-out: Enz PRKACA IC50. Here is the method:
A Perkin Elmer electrophoretic mobility shift platform (the EZ Reader 2) was used to assess the activity of test compounds against a kinase of interest. Fluorescently labeled substrate peptide was incubated in the presence of kinase, ATP, and the test compound, so that a portion of the peptide was phosphorylated by the enzyme. At the end of the reaction, the mix of phosphorylated (product) and non-phosphorylated (substrate) peptide containing solutions was passed through the microfluidic system of the Perkin Elmer EZ Reader 2 under an applied potential difference. The presence of the phosphate group on the product peptide provided a difference in mass and charge between those of the substrate peptide, resulting in a separation of the substrate and product pools in the sample. As the stopped solutions passed under the instrument's LED light the phosphorylated and un-phosphorylated fluorophore bound peptides were detected and resolved as separate peaks. The ratio between these peaks therefore reflected the test compound's impact on the kinase at that concentration in that well under those conditions.
PRKACA assay at Km: In each well of a 384-well plate, 0.007 ng/ul (0.18 nM) of PRKACA enzyme (Millipore: 539482) was incubated in a total of 12.5 μl of buffer (100 mM HEPES pH 7.5, 0.015% Brij 35, 10 mM MgCl2, 1 mM DTT) with 1 μM Kemptide peptide substrate (5-FAM-LRRASLG) (Anaspec 29933) and 5 μM ATP at 25 C for 90 minutes in the presence or absence of a dosed concentration series of test compounds (1% DMSO final concentration). The reaction was stopped by the addition of 80 μl of Stop buffer (100 mM HEPES pH 7.5, 0.015% Brij 35, 35 mM EDTA and 0.2% of Coating Reagent 3 (Perkin Elmer)). The plate was then read on the EZ Reader 2 (protocol settings: −2.0 psi, upstream voltage −700, downstream voltage −2700, post sample sip 60 seconds). Data was normalized to 0% and 100% inhibition controls and the IC50 calculated using a 4-parameter fit using GraphPad Prism.
In general terms: Mobility shift assays separate free from complexed probe on a gel.

Test [1] has as its system PKA (phosphorylation of VASP on Serine 157). The test can be described thus: Cellular potency assay: P-VASP(157) HTRF in Forskolin-stimulated Huh7 cells. The format is cell-based. Particulars: Homo sapiens, Huh-7, 4 hours compound, 5 μM Forskolin 30 minutes, read-out: Phos VASP(S157) IC50. An excerpt: PKA directly phosphorylate VASP on Serine 157. Phosphorylation of VASP on Serine 157. P-VASP(157) was therefore used as a readout of PKA cellular activity. P-VASP(157) was detected with a HTRF assay, which is based on a TR-FRET sandwich immunoassay-based format comprising two specific anti-VASP antibodies following the manufactors protocol (Cisbio, Catalog No. 63ADK066PEH). PKA was activated in the assay by the addition of Forskolin (Sigma-Aldrich, Catalog No. F3917).
Dose response in Forskolin-stimulated human Huh7 cells was measured as follows. Briefly, Huh7 cells were plated at a density of 2×10^4 cells per well in a 384-well opti-well cell culture plate in 15 μl of serum- and phenol-free Dulbecco's Modified Eagle Medium (DMEM, Gibco Catalog No. 21063-029), and incubated for over night at 37° C., 5% CO2. The next day, 3 μl of a dosed concentration series of test compound (0.24%) DMSO final concentration) was added to the wells, and the cells were incubated for an additional 4 hours at 37° C., 5% CO2. 2 μl of Forskolin was added at a final concentration of 5 μM and the plates were incubated for 30 minutes at 37° C., 5% CO2. 5 μl of lysis buffer containing 1% HALT protease cocktail inhibitors (ThermoFisher, Catalog No. 78430), was added to the cells and the mixture was incubated under gentle shaking for 30 min at room temperature. 10 μl of this lysate was transferred to a 384-well proxi plate and 2.5 μL of the premixed antibody solution was added. An antibody solution was prepared by combining phopho-VASP cryptate antibody and phospho-VASP d2 antibody, at twenty-fold dilution into a buffer solution following the manufactors' protocol. The lysate and antibody mixture was incubated for either 3 h at room temperature or overnight at 4° C. The fluorescence emission at two different wavelengths (665 nm and 620 nm) was read on an EnVision instrument.
On the technique in general: Time-resolved FRET reads energy transfer from a long-lived donor to a nearby acceptor.

By IC50 is commonly meant the concentration at which inhibition is half-maximal. Regarding `O=C(N[C@H]1C[C@H](O)c2cccc(F)c21)c1ccc(-c2ccnc3[nH]ccc23)nc1` (single isomer, unassigned) [Compound 118], the IC50 at PRKACA is not above 1 nM; in test [1], 0.01 to 100 nM.

Consider `C[C@@H]1c2cccc(F)c2[C@@H](NC(=O)c2ccc(-c3ccnc4[nH]ccc34)nc2)[C@H]1O` (single isomer, unassigned) [Compound 122], for which the half-inhibitory concentration (IC50) on PRKACA was not above 1 nM; in test [1], less than 50 nM.

With `O=C(N[C@H]1c2c(ccc(F)c2F)OC[C@H]1O)c1ccc(-c2ccnc3[nH]ccc23)nc1` (stereo in doubt) [Compound 140, N-[(3S,4S)-5,6-Difluoro-3-hydroxy-3,4-dihydro-2H-1-benzopyran-4-yl]-6-{1H-pyrrolo[2,3-b]pyridin-4-yl}pyridine-3-carboxamide], the values for the half-maximal inhibitory concentration (IC50) (on PRKACA; in test [1]) were not above 1 nM and 0.01 to 100 nM, respectively.

For `O=C(N[C@H]1CCc2ccc(F)cc21)c1ccc(-c2ccnc3[nH]ccc23)nc1` [Compound 105, N-[(1S)-6-Fluoro-2,3-dihydro-1H-inden-1-yl]-6-{1H-pyrrolo[2,3-b]pyridin-4-yl}pyridine-3-carboxamide], the half-inhibitory concentration (IC50) at PRKACA lay in the range of 1.01 to 5 nM; in test [1], 0.01 to 100 nM.

As to `O=C(N[C@H]1CCc2cccc(F)c21)c1ccc(-c2ccnc3[nH]ccc23)nc1` [Compound 106], the half-inhibitory concentration (IC50) at PRKACA was not above 1 nM; in test [1], 0.01 to 100 nM.

As for `O=C(N[C@@H]1c2ccccc2OC[C@H]1F)c1ccc(-c2ccnc3[nH]ccc23)cc1` [Compound 116, N-[(3S,4R)-3-Fluoro-3,4-dihydro-2H-1-benzopyran-4-yl]-4-{1H-pyrrolo[2,3-b]pyridin-4-yl}benzamide], the IC50 is not above 1 nM on PRKACA and 0.01 to 100 nM in test [1].

Turning to `O=C(N[C@@H]1c2c(F)cccc2OC[C@@H]1O)c1ccc(-c2ccnc3[nH]ccc23)cc1` [Compound 124], the half-maximal inhibitory concentration (IC50) on PRKACA was not above 1 nM; in test [1], less than 50 nM.

Turning to `O=C(N[C@@H]1c2c(ccc(F)c2F)C[C@@H]1O)c1ccc(-c2ccnc3[nH]ccc23)nc1` [Compound 132, N-[(1R,2S)-6,7-Difluoro-2-hydroxy-2,3-dihydro-1H-inden-1-yl]-6-{1H-pyrrolo[2,3-b]pyridin-4-yl}pyridine-3-carboxamide], the figures for the 50% inhibitory concentration (IC50) (on PRKACA; in test [1]) were not above 1 nM and less than 50 nM, respectively.

`O=C(N[C@@H]1c2ccccc2C[C@H]1N1CCC1)c1ccc(-c2ccnc3[nH]ccc23)nc1` [Compound 133]: the IC50 on PRKACA fell in the range of 1.01 to 5 nM; in test [1], 0.01 to 100 nM.

On to `C[C@H]1Oc2cccc(F)c2[C@@H](NC(=O)c2ccc(-c3ccnc4[nH]ccc34)nc2)[C@@H]1O` [Compound 137], for which the IC50 on PRKACA is not above 1 nM; in test [1] it was 0.01 to 100 nM.

Regarding `Cc1c[nH]c2nccc(-c3ccc(C(=O)N[C@H]4CCOc5cc(F)cc(F)c54)cn3)c12` [Compound 138], the half-maximal inhibitory concentration (IC50) was not above 1 nM at PRKACA and 0.01 to 100 nM in test [1].

With `O=C(N[C@H]1CCOc2ccc(Cl)c(F)c21)c1ccc(-c2ccnc3[nH]ccc23)nc1` [Compound 143], the values for the IC50 (on PRKACA; in test [1]) were not above 1 nM and less than 50 nM, respectively.

Consider `CC1CN([C@@H]2Cc3ccccc3[C@H]2NC(=O)c2ccc(-c3ccnc4[nH]ccc34)nc2)C1` [Compound 145], for which the values for the half-inhibitory concentration (IC50) (on PRKACA; in test [1]) were not above 1 nM and 0.01 to 100 nM, respectively.

Turning to `CCN(CC)[C@@H]1Cc2ccccc2[C@H]1NC(=O)c1ccc(-c2ccnc3[nH]ccc23)nc1` [Compound 147], the results for the IC50 (at PRKACA; in test [1]) were 1.01 to 5 nM and less than 50 nM, respectively.

With `C[C@H]1Oc2ccc(F)c(F)c2[C@@H](NC(=O)c2ccc(-c3ccnc4[nH]ccc34)nc2)[C@@H]1O` [Compound 149], the IC50 at PRKACA is not above 1 nM; in test [1], less than 50 nM.

Turning to `Cc1cccc2c1[C@@H](NC(=O)c1ccc(-c3ccnc4[nH]ccc34)nc1)[C@H](N1CCCC1)C2` [Compound 153], the figures for the concentration for half-maximal inhibition (IC50) (on PRKACA; in test [1]) were not above 1 nM and 0.01 to 100 nM, respectively.

For `O=C(N[C@H]1C[C@H](O)c2cc(C(F)F)cc(F)c21)c1ccc(-c2ccnc3[nH]ccc23)nc1` [Compound 155], the results for the 50% inhibitory concentration (IC50) (on PRKACA; in test [1]) were not above 1 nM and less than 50 nM, respectively.

On to `O=C(N[C@H]1C[C@@H](O)c2cc(C(F)F)cc(F)c21)c1ccc(-c2ccnc3[nH]ccc23)nc1` [Compound 156], for which the IC50 at PRKACA is not above 1 nM; in test [1] it was less than 50 nM.

As to `O=C(N[C@@H]1c2ccccc2C[C@H]1N1CC[C@H](F)C1)c1ccc(-c2ccnc3[nH]ccc23)nc1` [Compound 158], the concentration for half-maximal inhibition (IC50) at PRKACA is not above 1 nM; in test [1] it was 0.01 to 100 nM.

In the case of `CO[C@@H]1CCN([C@@H]2Cc3ccccc3[C@H]2NC(=O)c2ccc(-c3ccnc4[nH]ccc34)nc2)C1` [Compound 163], the IC50 was not above 1 nM on PRKACA and 0.01 to 100 nM in test [1].

For the compound `O=C(N[C@@H]1c2c(F)cc(C(F)F)cc2OC[C@@H]1O)c1ccc(-c2ccnc3[nH]ccc23)nc1` [Compound 164], the IC50 at PRKACA is not above 1 nM; in test [1], less than 50 nM.

Consider `Cc1c[nH]c2nccc(-c3ccc(C(=O)N[C@@H]4c5c(F)cccc5C[C@H]4N4CC(C)C4)cn3)c12` [Compound 166], for which the IC50 at PRKACA was not above 1 nM; in test [1], 0.01 to 100 nM.

As to `O=C(N[C@@H]1c2c(Cl)cccc2C[C@H]1N1CCCC1)c1ccc(-c2ccnc3[nH]ccc23)nc1` [Compound 168], the values for the IC50 (at PRKACA; in test [1]) were not above 1 nM and less than 50 nM, respectively.

Turning to `Cc1c[nH]c2nccc(-c3ccc(C(=O)N[C@@H]4c5c(Cl)cccc5C[C@H]4N4CCCC4)cn3)c12` [Compound 174], the half-maximal inhibitory concentration (IC50) on PRKACA is not above 1 nM; in test [1] it was less than 50 nM.

Regarding `O=C(N[C@@H]1c2c(ccc(F)c2Cl)C[C@H]1N1CCCC1)c1ccc(-c2ccnc3[nH]ccc23)nc1` [Compound 177], the half-inhibitory concentration (IC50) at PRKACA is not above 1 nM; in test [1], less than 50 nM.

Turning to `O=C(N[C@@H]1c2c(Cl)cccc2C[C@H]1N1CC[C@H](F)C1)c1ccc(-c2ccnc3[nH]ccc23)nc1` [Compound 178], the 50% inhibitory concentration (IC50) was not above 1 nM at PRKACA and less than 50 nM in test [1].

`O=C(N[C@@H]1c2c(ccc(F)c2F)C[C@H]1N1CCCC1)c1ccc(-c2ccnc3[nH]cc(F)c23)nc1` [Compound 179]: the IC50 at PRKACA was not above 1 nM; in test [1], less than 50 nM.

On to `Cc1c[nH]c2nccc(-c3ccc(C(=O)N[C@@H]4c5c(ccc(F)c5Cl)C[C@H]4N4CCCC4)cn3)c12` [Compound 181], for which the 50% inhibitory concentration (IC50) is not above 1 nM on PRKACA and less than 50 nM in test [1].

On to `Cc1c[nH]c2nccc(-c3ccc(C(=O)N[C@@H]4c5c(Cl)cccc5C[C@H]4N4CC[C@H](F)C4)cn3)c12` [Compound 182], for which the figures for the IC50 (at PRKACA; in test [1]) were not above 1 nM and 0.01 to 100 nM, respectively.

For the compound `O=C(N[C@@H]1c2ccc(C(F)F)cc2C[C@H]1N1CC[C@H](F)C1)c1ccc(-c2ccnc3[nH]ccc23)nc1` [Compound 183], the half-inhibitory concentration (IC50) on PRKACA is 1.01 to 5 nM; in test [1] it was 0.01 to 100 nM.

As for `O=C(N[C@@H]1c2c(Cl)cccc2C[C@H]1N1C[C@@H](O)[C@H](F)C1)c1ccc(-c2ccnc3[nH]ccc23)nc1` [Compound 184], the IC50 at PRKACA was in the range of 1.01 to 5 nM.

Turning to `O=C(N[C@@H]1c2c(Cl)cccc2C[C@H]1N1C[C@@H](O)[C@@H](F)C1)c1ccc(-c2ccnc3[nH]ccc23)nc1` [Compound 187], the IC50 at PRKACA is 1.01 to 5 nM; in test [1], more than 100 nM.
